Laboratory results taken from patent US9931629B2, “Substance exposure apparatus” (The University of Queensland, priority 2011, dated 2018).
Entries after “also recorded” stand apart in the source; their conditions may differ.

What was measured:
Type in all cases: cell-based, human
HES3-MIXL1-GFP hESCs [1] = test: Primitive streak array screening of CHIR99021, conditioned medium and IWP-4 (MIXL1-GFP reporter); conditions: background RPMI B27 with 10 ng/mL BMP-4 and 6 ng/mL Activin A, continuous flow
Procedure: For use in apparatus 300, conditioned medium was recovered from static controls differentiated in 10 ng/mL BMP-4 and 6 ng/mL Activin A in RPMI B27 medium. Cells were removed by centrifugation and supernatant medium stored at 4° C. Media from days 1 and 2 were mixed and BMP-4 and Activin A re-supplemented at 50% of nominal levels before use in arrays.

HES3-MIXL1-GFP hESCs [2] = test: Static primitive streak induction cultures with chemical modulation of Wnt signals
Procedure: HES3-MIXL1-GFP hESCs maintained in mTeSR-1/Matrigel cultures were detached with TrypLE Express, seeded at 7.5×10^4 cells/cm^2 into 24-well plates coated with a limiting dilution of hESC-qualified Matrigel and allowed to attach overnight, after which cultures were typically ˜60% confluent. MIXL1-GFP expression was then induced by differentiating in RPMI B27 medium with 10 ng/ml BMP-4 and 6 ng/ml Activin A (both R&D Systems) for 2.5 d with optional addition of 5 μM IWP-4 and 5 μM CHIR99021 (both Stemgent), or 0.1% v/v DMSO vehicle control.
Although such paracrine factor dependencies and negative feedback signals regulating mesendoderm specification are clearly necessary developmental drivers in a transient in vivo structure such as primitive streak, they inevitably reduce efficiency of in vitro differentiation. It was therefore tested whether the outcomes of modulating positive and negative paracrine regulators in the array could be translated to optimise directed differentiation protocols in conventional static cultures.

HES3-MIXL1-GFP hESCs [3] = test: Primitive streak differentiation screening in array of BIO, BMP-4 and Activin A (MIXL1-GFP reporter)
Procedure: Cells were allowed to attach to the well array 330 for 8-10 h in an incubator (37° C., 5% CO2 in air), then subjected to continuous fluid flow under the specified factor conditions at 60 μL/h total flowrate.
Serial exchange of staining and washing solutions was driven by a syringe pump.
Spot intensities in each channel were linearly transformed about the mean and standard deviation for all spots in that channel in an individual array, by IEOS-GFP=(TEOS-GFP−μEOS-GFP)/σEOS-GFP, where IEOS-GFP is the expression index of EOS-GFP, and μEOS-GFP is the mean and σEOS-GFP the standard deviation of all TEOS-GFP for a particular array. This provides expression indices (IEOS-GFP, IMIXL1-GFP) rating each spot's intensity in terms of global standard deviations relative to the global mean.
Factorial analyses are performed on expression index data with MINITAB 15 software (Minitab Inc.). Expression indices were designated as response variables and soluble factors designated as inputs. A fourth input variable, ‘Position’, was defined based on each culture well's row coordinate in the array. Effect magnitudes were then generated by MINITAB according to methods described elsewhere^45. Pearson product-moment correlation coefficients (rX,Y), coefficients of determination for linear regression (R^2), and Student's t-test statistics were calculated with Microsoft Excel. For Student's t-tests, two-tailed tests were performed for two samples assuming unequal variances, and differences with p<0.05 were considered significant.
HES3-MIXL1-GFP hESCs (also, HES3 MIXL1^GFP/w hESCs; karyotying and in vivo teratomas) growing as a monolayer were differentiated under continual flow in the apparatus 300 for 2.5 d in a full-factorial array of BMP-4, Activin A, and the GSK-3β inhibitor/canonical Wnt activator 6-bromoindirubin-3′-oxime (BIO) in RPMI B27 medium. A screening panel showing array conditions is shown in FIG. 6A, with numbers indicating concentrations of BIO (μM), BMP-4 (ng/mL) and Activin A (ng/mL).

[4] = 2.5 d, continual flow, RPMI B27 medium

## Cc1c[nH]c(-c2cnc(NCCNc3ccc(C#N)cn3)nc2-c2ccc(Cl)cc2Cl)n1 [CHIR99021]
HES3-MIXL1-GFP hESCs [1]
  effect on MIXL1-GFP expression level and position in the array: only shifted expression up marginally; also recorded: produced an extended streak of MIXL1-GFP expression
HES3-MIXL1-GFP hESCs [1]; listed as CHIR
  effect on MIXL1-GFP expression level and position in the array: both improved the expression level and broadened the number of rows over which appreciable expression extended
HES3-MIXL1-GFP hESCs [2]; 5 μM CHIR99021 added to RPMI B27+10 ng/mL BMP-4+6 ng/mL Activin A, 2.5 d, 51% under standard conditions
  MIXL1-GFP induction, % of cells: 86%

## COc1ccccc1-n1c(SCC(=O)Nc2nc3ccc(C)cc3s2)nc2c(c1=O)SCC2 [IWP-4]
HES3-MIXL1-GFP hESCs [2]; static controls, FIG. 7H, 5 μM IWP-4
  MIXL1 induction: completely blocked MIXL1 induction

## O=C1Nc2cc(Br)ccc2/C1=C1/Nc2ccccc2/C1=N\O [BIO, 6-bromoindirubin-3′-oxime]
HES3-MIXL1-GFP hESCs [3]; 2.5 d, continual flow, RPMI B27 medium, levels 0, 1, 2 μM
  optimum concentration for expression index IMIXL1-GFP (factorial analysis): 1 µM
HES3-MIXL1-GFP hESCs [3]; column 15: 1 μM BIO with 10 ng/mL BMP-4, 6 ng/mL Activin A, single peak at row 7 without BIO
  number of rows over which bright MIXL1-GFP expression extended: 4-5 rows

B1: BMP-4: soluble growth factor (R&D Systems) used for primitive streak induction (protein, UniProt P12644 293-408, looked up)
Bone morphogenetic protein 4: SPKHHSQRARKKNKNCRRHSLYVDFSDVGWNDWIVAPPGYQAFYCHGDCPFPLADHLNSTNHAIVQTLVNSVNSSIPKACCVPTELSAISMLYLDEYDKVVLKNYQEMVVEGCGCR
HES3-MIXL1-GFP hESCs [3]; [4]
  optimum concentration for expression index IMIXL1-GFP (factorial analysis): 10 ng/mL

B2: Activin A: soluble growth factor (R&D Systems) used for primitive streak induction (protein, UniProt P08476 311-426, looked up)
Inhibin beta A chain: GLECDGKVNICCKKQFFVSFKDIGWNDWIIAPSGYHANYCEGECPSHIAGTSGSSLSFHSTVINHYRMRGHSPFANLKSCCVPTKLRPMSMLYYDDGQNIIKKDIQNMIVEECGCS
HES3-MIXL1-GFP hESCs [3]; [4]
  dependence of expression index IMIXL1-GFP on factor (factorial analysis): linear, positive dependence
